“And” between values parts separate entries of the source, which are not always exact repeats. Equal entries are not always repeated.
Key:
Plasmodium berghei [1] = assay: Antimalarial effect against trophozoite-induced Plasmodium berghei in mice (Mus musculus) at 160 mg/kg subcutaneous dose; format: functional
Plasmodium berghei [2] = assay: Antimalarial activity against trophozoite-induced Plasmodium berghei in mice (Mus musculus); format: functional
Plasmodium berghei [3] = assay: Antimalarial effect against trophozoite-induced Plasmodium berghei in mice (Mus musculus) after 20 mg/kg subcutaneous dose; format: functional
[4] = The ratio of SD90 of the quinine hydrochloride, to the SD90 of the test substance for the Dose of 46 mg/kg; format: functional
Plasmodium berghei [5] = assay: Antimalarial effect against trophozoite-induced Plasmodium berghei in mice (Mus musculus) after 40 mg/kg subcutaneous dose; format: functional
Mus musculus [6] = assay: Number of mice cured at a subcutaneous dose of 320 mg/kg.; format: functional
Plasmodium berghei [7] = assay: Antimalarial effect against trophozoite-induced Plasmodium berghei in mice (Mus musculus) at 320 mg/kg subcutaneous dose; format: functional
Mus musculus [8] = assay: Number of mice cured at a dose 160 mg/kg sc; format: functional; conditions: route subcutaneous
Plasmodium berghei [9] = assay: Antimalarial effect against trophozoite-induced Plasmodium berghei in mice (Mus musculus) at 80 mg/kg subcutaneous dose; format: functional
Mus musculus [10] = assay: Antimalarial effect against trophozoite-induced Plasmodium berghei in mice (Mus musculus) at dosage of 320 mg/kg after subcutaneous administration;; format: functional
Plasmodium berghei [11] = assay: Antimalarial activity against trophozoite-induced Plasmodium berghei in mice (Mus musculus) at 160 mg/kg subcutaneous dose; format: functional
Mus musculus [12] = assay: Number of mice cured at a dose of 640 mg/kg sc; format: functional; conditions: route subcutaneous, 640 mg/kg
Plasmodium berghei [13] = assay: (§1) Antimalarial effect against trophozoite-induced Plasmodium berghei in mice (Mus musculus) at 640 mg/kg subcutaneous dose; format: functional
Mus musculus [14] = assay: Antimalarial effect against trophozoite-induced Plasmodium berghei in mice (Mus musculus) at dosage of 320 mg/kg after subcutaneous administration; No. of mice (Mus musculus) surviving after 60 days 2; format: functional
Mus musculus [15] = assay: Number of mice cured at a subcutaneous dose of 160 mg/kg.; format: functional
Mus musculus [16] = assay: Antimalarial effect against trophozoite-induced Plasmodium berghei in mice (Mus musculus) at dosage of 640 mg/kg after subcutaneous administration; No. of mice (Mus musculus) surviving after 60 days 4; format: functional
Mus musculus [17] = assay: Antimalarial effect against trophozoite induced Plasmodium berghei in mice (Mus musculus) at dosage of 160 mg/kg after subcutaneous administration; No. of mice (Mus musculus) surviving after 60 days 1; format: functional
[18] = The ratio of SD90 of the quinine hydrochloride, to the SD90 of the test substance for the Dose of 74.5 mg/kg; format: functional
Plasmodium berghei [19] = assay: as §1; format: functional; remark: listed apart in the source
[20] = The ratio of SD90 of the quinine hydrochloride, to the SD90 of the test substance for the Dose of 18.5 mg/kg; format: functional
Mus musculus [21] = assay: Number of mice cured at a subcutaneous dose of 640 mg/kg.; format: functional
[22] = The ratio of SD90 of the quinine hydrochloride, to the SD90 of the test substance for the Dose of 2.2 mg/kg; format: functional
[23] = The ratio of SD90 of the quinine hydrochloride, to the SD90 of the test substance for the Dose of 97 mg/kg/day; format: functional
Mus musculus [24] = assay: No of toxic deaths at dose of 640 mg/kg; format: ADME, organism-based; design: dose 640 mg/kg; conditions: in vivo
Mus musculus [25] = assay: Number of toxic deaths at a dose of 640 mg/kg; format: toxicity, organism-based; design: dose 640 mg/kg; conditions: in vivo
[26] = The ratio of SD90 of the quinine hydrochloride, to the SD90 of the test substance for the Dose of 16 mg/kg; format: functional
Mus musculus [27] = assay: Number of mice cured at a dose of 320 mg/kg sc; format: functional; conditions: route subcutaneous
[28] = The ratio of SD90 of the quinine hydrochloride, to the SD90 of the test substance for the Dose of 70 mg/kg; format: functional
[29] = The ratio of SD90 of the quinine hydrochloride, to the SD90 of the test substance for the Dose of 22 mg/kg; format: functional
Mus musculus [30] = assay: Antimalarial effect against trophozoite-induced Plasmodium berghei in mice (Mus musculus) at dosage of 20 mg/kg after subcutaneous administration.; format: functional

CCN1CCCC(Nc2nc(Nc3ccc(Cl)c(Cl)c3)nc3ccc(Cl)cc23)C1 (centres undefined)
MST (Plasmodium berghei [1]): 0.3 days
SD90 (Plasmodium berghei [2]): 46 mg/kg/day
MST (Plasmodium berghei [3]): 0.1 days
Ratio [4]: 1.6
MST (Plasmodium berghei [5]): 0.1 days

CCN(CC)C1CCC(Nc2nc(Nc3ccc(I)cc3)c3ccccc3n2)CC1 (centres undefined)
No. of survivals (Mus musculus [6]): 2
MST (Plasmodium berghei [1]): 14.4 days
MST (Plasmodium berghei [7]): 9.9 days
No. of survivals (Mus musculus [8]): 2
MST (Plasmodium berghei [9]; 80 mg/kg): 0.7 days and 0.5 days
MST (Mus musculus [10]): 9.4 days
MST (Plasmodium berghei [11]): 8.6 days
No. of survivals (Mus musculus [12]): 3 and 2
MST (Plasmodium berghei [3]): 0.3 days
MST (Plasmodium berghei [5]): 0.5 days

CCN(CC)C1CCC(Nc2nc(Nc3ccc(Cl)c(Cl)c3)nc3ccc(Cl)cc23)CC1 (centres undefined)
No. of survivals (Mus musculus [6]): 2
MST (Plasmodium berghei [13]): 18.4 days
MST (Mus musculus [14]): 27.2 days
No. of survivals (Mus musculus [15]): 1
MST (Plasmodium berghei [9]): 14.9 days
MST (Plasmodium berghei [11]): 12.9 days
No. of survivals (Mus musculus [12]): 4 and 3
MST (Plasmodium berghei [3]): 1.3 days
MST (Mus musculus [16]): 12.9 days
MST (Plasmodium berghei [5]; 40 mg/kg): 13.3 days and 12.9 days
MST (Mus musculus [17]): 13.9 days

C=C[C@H]1CN2CC[C@H]1C[C@H]2[C@H](O)c1ccnc2ccc(OC)cc12 [QUININE]
MST (Plasmodium berghei [1]): 2 days
MST (Plasmodium berghei [7]): 3.2 days
SD90 (Plasmodium berghei [2]): 74.5 mg/kg/day
MST (Plasmodium berghei [9]): 1.4 days
Ratio [18]: 1
MST (Plasmodium berghei [19]): 5.4 days
MST (Plasmodium berghei [3]): 0.2 days
MST (Plasmodium berghei [5]): 1 days

CN1CCCC1CCNc1nc(Nc2ccc(Cl)c(Cl)c2)nc2ccc(Cl)cc12 (centres undefined)
No. of survivals (Mus musculus [6]): 2
MST (Plasmodium berghei [1]; 160 mg/kg): 6.1 days and 2.5 days
MST (Plasmodium berghei [7]): 14.2 days
SD90 (Plasmodium berghei [2]): 18.5 mg/kg/day
MST (Plasmodium berghei [9]): 2.7 days
MST (Plasmodium berghei [19]): 13.6 days
MST (Plasmodium berghei [3]): 0.5 days
MST (Plasmodium berghei [5]; 40 mg/kg): 1.1 days and 0.5 days
Ratio [20]: 4

CCN1CCCC(Nc2nc(Nc3ccc(Cl)c(Cl)c3)nc3ccccc23)C1 (centres undefined)
No. of cured (Mus musculus [21]; 640 mg/kg): 3 and 2
MST (Plasmodium berghei [13]; 640 mg/kg): 13.8 days and 24.2 days
Ratio [22]: 34
MST (Plasmodium berghei [1]; 160 mg/kg): 6.2 days and 7.3 days
MST (Plasmodium berghei [7]): 13.8 days
SD90 (Plasmodium berghei [2]): 2.2 mg/kg/day
MST (Plasmodium berghei [9]): 1 days
MST (Plasmodium berghei [3]): 0.4 days
MST (Plasmodium berghei [5]; 40 mg/kg): 0.6 days and 0.5 days

Clc1cccc(Nc2nc(NCCN3CCCC3)c3ccccc3n2)c1
MST (Plasmodium berghei [1]; 160 mg/kg): 2.8 days and 3.5 days
MST (Plasmodium berghei [7]): 4.2 days
SD90 (Plasmodium berghei [2]): 97 mg/kg/day
MST (Plasmodium berghei [9]): 1.4 days
Ratio [23]: 0.8
MST (Plasmodium berghei [19]; 640 mg/kg): 10.2 days and 11.1 days
MST (Plasmodium berghei [3]): 0.4 days
MST (Plasmodium berghei [5]; 40 mg/kg): 0.6 days and 0.7 days

CC1(C)N=C(N)N=C(N)N1c1ccc(Cl)cc1 [CYCLOGUANIL]
MST (Plasmodium berghei [9]; 80 mg/kg): 21.6 days and 21.9 days
No. of toxic deaths (Mus musculus [24]): 5
No. of toxic deaths (Mus musculus [25]): 5
MST (Plasmodium berghei [3]; 20 mg/kg): 7.9 days and 8.1 days
MST (Plasmodium berghei [5]): 13.4 days

CN1CCCC1CCNc1nc(Nc2ccc(C(F)(F)F)cc2)nc2ccccc12 (centres undefined)
No. of cured (Mus musculus [21]): 4
MST (Plasmodium berghei [13]): 25.8 days
MST (Plasmodium berghei [1]): 10.5 days
MST (Plasmodium berghei [7]): 15.5 days
SD90 (Plasmodium berghei [2]): 16 mg/kg/day
Ratio [26]: 4.7
MST (Plasmodium berghei [9]): 3.2 days
No. of cured (Mus musculus [27]): 2
MST (Plasmodium berghei [3]): 1 days
MST (Plasmodium berghei [5]): 1.2 days

Clc1ccc(Nc2nc(NCCN3CCCC3)c3ccccc3n2)cc1Cl
MST (Plasmodium berghei [1]; 160 mg/kg): 6.5 days and 7.1 days
MST (Plasmodium berghei [7]): 9.3 days
SD90 (Plasmodium berghei [2]): 70 mg/kg/day
Ratio [28]: 1.1
MST (Plasmodium berghei [9]): 3.1 days
MST (Plasmodium berghei [19]; 640 mg/kg): 15.9 days and 13.7 days
MST (Plasmodium berghei [3]): 0.3 days
MST (Plasmodium berghei [5]; 40 mg/kg): 2.1 days and 2.3 days

FC(F)(F)c1ccc(Nc2nc(NCCCN3CCCC3)c3cc(Cl)ccc3n2)cc1
No. of survivals (Mus musculus [6]): 1
MST (Plasmodium berghei [13]; 640 mg/kg): 26.5 days and 23.3 days
MST (Plasmodium berghei [1]; 160 mg/kg): 4.6 days and 4 days
MST (Plasmodium berghei [7]): 14.6 days
SD90 (Plasmodium berghei [2]): 22 mg/kg/day
MST (Plasmodium berghei [9]): 1.6 days
Ratio [29]: 3.4
No. of survivals (Mus musculus [12]): 2 and 3
MST (Plasmodium berghei [3]): 0.2 days
MST (Plasmodium berghei [5]): 0.4 days
MST (Mus musculus [30]): 0.4 days

— ChEMBL document CHEMBL1121775, “Synthesis and antimalarial effects of N2-aryl-N4-[(dialkylamino)alkyl]- and N4-aryl-N2-[(dialkylamino)alkyl]-2,4-quinazolinediamines” (J Med Chem, 1981)
